Data set [1] concerns the target T1, MAP kinase-activated protein kinase 2 (Homo sapiens, UniProt P49137). In words: Inhibition of MK2 in human THP-1 cells assessed as inhibition of anisomycin stimulated ser78-hsp27 phosphorylation after 10 mins by FACS analysis. It is filed as cell-based.
Data set [2] has as its target T1, MAP kinase-activated protein kinase 2. The data set can be described thus: Inhibition of human MK2 using hsp27 peptide biotinyl-AYSRALSRQLSSGVSEIRCOOH as substrate after 45 mins by FRET assay.
Data set [3] deals with Mitogen-activated protein kinase 9 (Homo sapiens, UniProt P45984). In words: Inhibition of JNK2.
Another data set relates to PBMC. The data set can be described thus: Antiinflammatory activity against LPS-induced TNFalpha release in human PBMC preincubated for 30 mins measured after 3 hrs of LPS stimulation. It is filed as functional, cell-based.
The next data set relates to Mus musculus. In words: Antiinflammatory activity in OFI mouse assessed as inhibition of LPS-induced TNFalpha release at 100 mg/kg, po dosed 1 hr before LPS challenge and measured after 1 hr post LPS challenge by ELISA. It is filed as functional. In general terms: An ELISA detects its analyte on a solid surface through an enzyme-linked reagent.
Data set [4] in a line: Drug level in LPS-stimulated OFI mouse plasma at 100 mg/kg, po after 2 hrs by LC-MS/MS analysis. It is filed as ADME, organism-based. More on the design: dose 100 mg/kg, route oral.

The structures appear in SMILES notation.

Mitogen-activated protein kinase 9, sequence (P45984 whole entry): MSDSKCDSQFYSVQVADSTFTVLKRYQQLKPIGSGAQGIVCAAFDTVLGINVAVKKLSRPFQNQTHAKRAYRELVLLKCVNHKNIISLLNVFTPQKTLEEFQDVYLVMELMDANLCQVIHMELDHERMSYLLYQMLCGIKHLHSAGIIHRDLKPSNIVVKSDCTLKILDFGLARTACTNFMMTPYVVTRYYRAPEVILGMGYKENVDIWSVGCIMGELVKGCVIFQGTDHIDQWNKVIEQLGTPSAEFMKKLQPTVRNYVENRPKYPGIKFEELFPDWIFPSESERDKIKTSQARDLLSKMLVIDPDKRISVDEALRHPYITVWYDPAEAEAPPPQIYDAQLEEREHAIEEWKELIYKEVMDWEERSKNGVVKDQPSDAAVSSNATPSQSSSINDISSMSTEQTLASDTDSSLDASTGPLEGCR
T1 sequence (P49137 whole entry): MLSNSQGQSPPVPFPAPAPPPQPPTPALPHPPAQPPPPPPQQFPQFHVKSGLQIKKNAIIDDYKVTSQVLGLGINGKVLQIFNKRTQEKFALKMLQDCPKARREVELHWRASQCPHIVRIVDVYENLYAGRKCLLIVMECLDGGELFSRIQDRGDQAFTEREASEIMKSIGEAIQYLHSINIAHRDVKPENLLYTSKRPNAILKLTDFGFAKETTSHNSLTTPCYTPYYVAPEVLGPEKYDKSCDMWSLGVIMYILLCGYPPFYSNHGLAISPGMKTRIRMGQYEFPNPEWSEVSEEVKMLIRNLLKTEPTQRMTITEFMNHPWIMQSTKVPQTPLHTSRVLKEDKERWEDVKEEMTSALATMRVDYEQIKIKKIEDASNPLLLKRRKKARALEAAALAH

With `COCCOc1cncc(-c2cc3c(ccc4c5c([nH]c43)CCNC5=O)cn2)c1`, the IC50 in data set [1] amounted to 0.7 µM; in data set [2], 0.012 µM; in data set [3] it was 0.649 µM; in the data set with PBMC it was 0.26 µM.

`O=C1NCCCc2[nH]c3c(ccc4cnc(-c5ccccc5OCCN5CCOCC5)cc43)c21`: the IC50 was 0.167 µM in data set [2] and over 3 µM in the data set on PBMC.

Regarding `O=C1NCCCc2[nH]c3c(ccc4cnc(-c5cncc(OCCN6CCOCC6)c5)cc43)c21`, the IC50 in data set [1] is over 30 µM; in data set [2] it was 0.08 µM; in data set [3], 3.17 µM; in the data set on PBMC, 8.6 µM.

Turning to `COCCOc1cncc(-c2cc3c(ccc4c5c([nH]c43)CCCNC5=O)cn2)c1`, the IC50 in data set [1] is 8.3 µM; in data set [2], 0.096 µM; in data set [3], 2.7 µM; in the data set on PBMC, 8.38 µM.

Consider `COc1ccc(-c2cc3c(ccc4c5c([nH]c43)CCCNC5=O)cn2)cc1`, for which the IC50 in data set [2] stood at 0.072 µM; in the data set with PBMC, 0.58 µM.

`NCc1[nH]c2c(ccc3cnc(/C=C/c4ccccc4)cc32)c1C(=O)O`: the values for the IC50 (in data set [2]; with PBMC) were 0.014 µM and 0.735 µM, respectively.

Consider `CNCc1[nH]c2c(ccc3cnc(/C=C/c4ccccc4)cc32)c1C(=O)O`, for which the IC50 in data set [2] is 0.06 µM; in the data set with PBMC, 1.24 µM.

As for `O=C1NOCc2[nH]c3c(ccc4cnc(/C=C/c5ccccc5)cc43)c21`, the IC50 in data set [2] was 0.025 µM; with PBMC it was 0.046 µM.

In the case of `COc1ccc(-c2cc3c(ccc4c5c([nH]c43)CN(C)NC5=O)cn2)cc1`, the concentration for half-maximal inhibition (IC50) in data set [1] is 0.875 µM; in data set [2], 0.023 µM; in data set [3], 0.547 µM; in the data set with PBMC it was 2.36 µM.

Consider `O=C1NCc2[nH]c3c(ccc4cnc(/C=C/c5ccccc5)cc43)c21`, for which the figures for the IC50 (in data set [2]; in data set [3]; in the data set with PBMC) were 0.01 µM, 0.002 µM and 0.014 µM, respectively.

With `O=C1NCc2[nH]c3c(ccc4cnc(/C=C/c5ccc(CN6CCOCC6)cc5)cc43)c21`, the IC50 came to 0.008 µM in data set [2], 0.022 µM in data set [3] and 0.005 µM with PBMC.

`O=C1NCc2[nH]c3c(ccc4cnc(/C=C/c5cccc(CCN6CCOCC6)c5)cc43)c21`: the IC50 in data set [2] was found to be 0.01 µM; in data set [3], 0.034 µM; in the data set with PBMC it was 0.014 µM.

Turning to `O=C1NCc2[nH]c3c(ccc4cnc(Nc5cccc(F)c5)cc43)c21`, the 50% inhibitory concentration (IC50) was determined as 0.073 µM in data set [2], 0.001 µM in data set [3] and 0.015 µM with PBMC.

Turning to `COc1ccc(-c2cc3c(ccc4c5c([nH]c43)CNC5=O)cn2)cc1`, the concentration for half-maximal inhibition (IC50) turned out to be 0.027 µM in data set [2] and 0.198 µM in the data set on PBMC.

Turning to `O=C1NCc2[nH]c3c(ccc4cnc(-c5ccccc5F)cc43)c21`, the IC50 in data set [1] was determined as 5.08 µM; in data set [2], 0.085 µM; in data set [3], 0.03 µM; in the data set with PBMC, 0.912 µM.

Regarding `O=C1NCc2[nH]c3c(ccc4cnc(-c5ccccc5C(F)(F)F)cc43)c21`, the midpoint of inhibition in data set [2], the IC50, lay at 0.9 µM.

For `O=C1NCc2[nH]c3c(ccc4cnc(-c5cccc(OCCN6CCOCC6)c5)cc43)c21`, the IC50 in data set [1] is 1.28 µM; in data set [2], 0.032 µM; in data set [3], 0.011 µM; in the data set with PBMC, 0.28 µM.

As for `O=C1NCc2[nH]c3c(ccc4cnc(-c5cncc(OCCN6CCOCC6)c5)cc43)c21`, the IC50 in data set [1] is 9.33 µM; in data set [2], 0.005 µM; in data set [3] it was 0.075 µM; in the data set with PBMC it was 0.556 µM.

Regarding `COCCOc1cncc(-c2cc3c(ccc4c5c([nH]c43)CNC5=O)cn2)c1`, the 50% inhibitory concentration (IC50) in data set [1] was 1.68 µM; in data set [2], 0.005 µM; in data set [3], 0.038 µM; in the data set on PBMC, 0.416 µM.

In data set [2], `CN1Cc2[nH]c3c(ccc4cnc(/C=C/c5ccccc5)cc43)c2C1=O` had an IC50 of 1.19 µM.

In the case of `O=C1NCCc2[nH]c3c(ccc4cnc(/C=C/c5ccc(CN6CCOCC6)cc5)cc43)c21`, the IC50 stood at 0.001 µM in data set [2], 0.198 µM in data set [3] and 0.009 µM in the data set on PBMC.

`O=C1NCCc2[nH]c3c(ccc4cnc(/C=C/c5cccc(CCN6CCOCC6)c5)cc43)c21`: the values for the IC50 (in data set [2]; in data set [3]; in the data set on PBMC) were 0.005 µM, 0.076 µM and 0.032 µM, respectively.

As to `COc1ccc(-c2cc3c(ccc4c5c([nH]c43)CCNC5=O)cn2)cc1F`, the half-maximal inhibitory concentration (IC50) in data set [1] worked out at 0.5 µM; in data set [2] it was 0.015 µM; in data set [3], 1.42 µM; with PBMC, 0.097 µM.

For the compound `O=C1NCCc2[nH]c3c(ccc4cnc(-c5cccc(OCCN6CCOCC6)c5)cc43)c21`, the IC50 in data set [1] was found to be 1.3 µM; in data set [2], 0.016 µM; in data set [3] it was 0.269 µM; in the data set on PBMC, 0.294 µM.

On to `O=C1NCCc2[nH]c3c(ccc4cnc(-c5cncc(OCCN6CCOCC6)c5)cc43)c21`, for which the IC50 in data set [1] came out at 2.5 µM; in data set [2] it was 0.01 µM; in data set [3], 0.418 µM; in the data set with PBMC, 0.283 µM.

In the case of `COc1ccc(-c2cc3c(ccc4c5c([nH]c43)CCC5=O)cn2)cc1F`, the IC50 was 5.8 µM in data set [1], 0.16 µM in data set [2], 2.2 µM in data set [3] and 1.4 µM in the data set on PBMC. In addition, the inhibition in vivo at 100 mg/kg with Mus musculus is 73%. Further, the concentration at 2 h in data set [4] stood at 13 µM.

For the compound `O=C1NCCCc2[nH]c3c(ccc4cnc(/C=C/c5ccccc5)cc43)c21`, the IC50 in data set [2] came out at 0.116 µM; in data set [3] it was 0.085 µM; with PBMC it was 0.202 µM.

As to `O=C1NCCCc2[nH]c3c(ccc4cnc(/C=C/c5ccc(CN6CCOCC6)cc5)cc43)c21`, the IC50 is 0.253 µM in data set [2], 0.98 µM in data set [3] and 0.14 µM with PBMC.

Consider `O=C1NCCCc2[nH]c3c(ccc4cnc(/C=C/c5cccc(CCN6CCOCC6)c5)cc43)c21`, for which the values for the IC50 (in data set [2]; in data set [3]; in the data set on PBMC) were 0.172 µM, 0.7 µM and over 1 µM, respectively.

For orientation: IC50 means the concentration needed to halve the response being measured. In general, inhibition in vivo refers to the percentage by which the read-out fell short of the control.

(Values after ChEMBL document CHEMBL1800003, “In vivo and in vitro SAR of tetracyclic MAPKAP-K2 (MK2) inhibitors. Part I” (Bioorg Med Chem Lett, 2010).)
